Source: patent publication US20010053796A1, “Delta-aminolevulinic acid for prevention and treatment of infection microorganisms and parasite” (priority 2000, published 2001)
Marks after values point to notes of the source that are not given here.

How the values were obtained:
Scutica = test: Prevention effect for Scutica artificial infection of fish body in vivo; details: for Mortality during Cultivation: fish number 20
Description: The water temperature was maintained at 20° C. (±2° C.) throughout the experiment.

Pseudomonas sp. [1] = test: Prevention effect for artificial infection (abdominal injection of bacteria); assay type: in vivo, Bastardhalibut; details: for Mortality during Cultivation: dead of 20 fish
Description: The water temperature was maintained at 20° C. (±2° C. ) throughout the experiment.
As the same method of above Experiment 1, fishes of both control group and experiment group were prepared and artificially infected by direct abdominal injection of Edwardsiella tarda 10^5 CFU per 1 fish. Each experimental fish was moved to fish tanks for monitoring and monitored for mortality according to infection for 2 weeks and viability after 2 weeks.
Bastardhalibut and Sebastes schlegeli were infected by Pseudomonas sp. through abdominal injection with the same method of fish breeding; δ-aminolevulinic acid treatment and artificial infection carried out in Experiment 1 and 2. Each experimental fish was moved to fish tanks for monitoring and monitored for mortality according to infection for 2 weeks.

Streptococcus sp. = test: Treatment effect of infected fry by oral administration in feed; assay type: in vivo, Bastardhalibut; details: 50 fish
Description: (§1) In this example, fry of Bastardhalibut and Sebastes schlegeli (mean body weight 2 g), 50 per each breeding tank, were preliminary-bred for 1 week and stabilized. […] The artificial infection methods were carried out through the digestion method. Pathogenic organisms were applied into fish tanks and introduced into seawater for an hour, wherein the concentration of organisms adjusted to 10^4 CFU/mL. Treatment conditions are as follows; after artificial infection, infected fish were moved to fish tanks and kept in the infection period for 3 days. […] The fish were bred for 2 weeks after exchanging with clean seawater and the mortality of fish according to infection was monitored. In the control groups, after each bacteria were identically infected through digestion method, mortality of Bastardhalibut and Sebastes schlegeli according to bacteria infection was identified while breeding with marketing assorted feed without δ-aminolevulinic acid. As a result of this experiment, δ-aminolevulinic acid-treated groups have shown high viability in both Bastardhalibut (Table 20˜Table 23) and Sebastes schlegeli (Table 24˜Table 27).

Edwardsiella tarda = test: as above; assay type: in vivo, Bastardhalibut; details: 50 fish
Description: as §1

Staphylococcus epidermis = test: as above; assay type: in vivo, Bastardhalibut; details: 50 fish
Description: as §1

Staphylococcus sp. = test: as above; assay type: in vivo, Bastardhalibut; details: 50 fish
Description: as §1

Pseudomonas sp. [2] = test: as above; assay type: in vivo, Bastardhalibut; details: 50 fish
Description: as §1

marine birnavirus (MABV) = test: Change of virus infection value (TCID50) in culture cells; assay type: cell-based; details: for Infection value by MABV: 8 mM
Text: In this experiment, change of infection value by virus according to δ-aminolevulinic acid treatment was examined by TCID50 using fish cell line for marine birnavirus (MABV) which infects major marine cultivating fish species, Bastardhalibut, Pagrus major and Sebastes schlegeli and acts as a cause for mass mortality. The virus used in this experiment was isolated from Bastardhalibut of a fish farm nearby Yeosu. Virus infection value was checked in CHSE-214 cell and then used as experimental virus solution. Virus incubation solution and δ-aminolevulinic acid diluted solution were combined with same amount (8 mL) and reacted for 30 min. and then, inoculated to culture cell and incubated at 20° C. Temporary change of virus infection value was compared with that of HBSS reaction virus solution (control).

[3] = Administration to fish tanks, 0.01 ppm, Bastardhalibut
[4] = Administration to fish tanks, 0.01 ppm, Sebastes schlegeli
[5] = Administration to fish tanks, 0.1 pm, Bastardhalibut
[6] = Administration to fish tanks, 0.1 pm, Sebastes schlegeli
[7] = Administration to fish tanks, 1.0 ppm, Bastardhalibut
[8] = Administration to fish tanks, 1.0 ppm, Sebastes schlegeli
[9] = Administration to fish tanks, 5.0 ppm, Bastardhalibut
[10] = Administration to fish tanks, 5.0 ppm, Sebastes schlegeli
[11] = Administration to fish tanks, 10 ppm, Bastardhalibut
[12] = Administration to fish tanks, 10 ppm, Sebastes schlegeli
[13] = Administration to fish tanks, 50 ppm, Bastardhalibut
[14] = Administration to fish tanks, 50 ppm, Sebastes schlegeli
[15] = Oral Adminstration, 0.1 ppm, Bastardhalibut
[16] = Oral Adminstration, 0.1 ppm, Sebastes schlegeli
[17] = Oral Adminstration, 1.0 ppm, Bastardhalibut
[18] = Oral Adminstration, 1.0 ppm, Sebastes schlegeli
[19] = Oral Adminstration, 5 ppm, Bastardhalibut
[20] = Oral Adminstration, 5 ppm, Sebastes schlegeli
[21] = Oral Adminstration, 10 ppm, Bastardhalibut
[22] = Oral Adminstration, 10 ppm, Sebastes schlegeli
[23] = Oral Adminstration, 50 ppm, Bastardhalibut
[24] = Oral Adminstration, 50 ppm, Sebastes schlegeli
[25] = Oral Adminstration, 100 ppm, Bastardhalibut
[26] = Oral Adminstration, 100 ppm, Sebastes schlegeli
[27] = orally, 1.0 ppm in feed, Bastardhalibut
[28] = orally, 10 ppm in feed, Bastardhalibut
[29] = orally, 100 ppm in feed, Bastardhalibut
[30] = to fish tanks, 0.01 ppm, Bastardhalibut
[31] = to fish tanks, 0.1 ppm, Bastardhalibut
[32] = to fish tanks, 1.0 ppm, Bastardhalibut
[33] = feed 0.1 ppm from 4th day of infection
[34] = feed 1.0 ppm from 4th day of infection
[35] = feed 50 ppm from 4th day of infection
[36] = feed 100 ppm from 4th day of infection

SMILES: NCC(=O)CCC(=O)O [δ-aminolevulinic acid]
- Viablity (%) (Scutica; [3]): 60%
- Mortality during Cultivation (Scutica; [3]): 8
- Viablity (%) (Scutica; [4]): 60%
- Mortality during Cultivation (Scutica; [4]): 8
- Viablity (%) (Scutica; [5]): 75%
- Mortality during Cultivation (Scutica; [5]): 7
- Viablity (%) (Scutica; [6]): 60%
- Mortality during Cultivation (Scutica; [6]): 8
- Viablity (%) (Scutica; [7]): 75%
- Mortality during Cultivation (Scutica; [7]): 5
- Viablity (%) (Scutica; [8]): 70%
- Mortality during Cultivation (Scutica; [8]): 6
- Viablity (%) (Scutica; [9]): 85%
- Mortality during Cultivation (Scutica; [9]): 3
- Viablity (%) (Scutica; [10]): 85%
- Mortality during Cultivation (Scutica; [10]): 3
- Viablity (%) (Scutica; [11]): 85%
- Mortality during Cultivation (Scutica; [11]): 3
- Viablity (%) (Scutica; [12]): 85%
- Mortality during Cultivation (Scutica; [12]): 3
- Viablity (%) (Scutica; [13]): 80%
- Mortality during Cultivation (Scutica; [13]): 4
- Viablity (%) (Scutica; [14]): 80%
- Mortality during Cultivation (Scutica; [14]): 4
- Viablity (%) (Scutica; [15]): 70%
- Mortality during Cultivation (Scutica; [15]): 6
- Viablity (%) (Scutica; [16]): 65%
- Mortality during Cultivation (Scutica; [16]): 7
- Viablity (%) (Scutica; [17]): 70%
- Mortality during Cultivation (Scutica; [17]): 6
- Viablity (%) (Scutica; [18]): 75%
- Mortality during Cultivation (Scutica; [18]): 5
- Viablity (%) (Scutica; [19]): 85%
- Mortality during Cultivation (Scutica; [19]): 3
- Viablity (%) (Scutica; [20]): 85%
- Mortality during Cultivation (Scutica; [20]): 3
- Viablity (%) (Scutica; [21]): 95%
- Mortality during Cultivation (Scutica; [21]): 1
- Viablity (%) (Scutica; [22]): 95%
- Mortality during Cultivation (Scutica; [22]): 1
- Viablity (%) (Scutica; [23]): 95%
- Mortality during Cultivation (Scutica; [23]): 1
- Viablity (%) (Scutica; [24]): 95%
- Mortality during Cultivation (Scutica; [24]): 1
- Viablity (%) (Scutica; [25]): 90%
- Mortality during Cultivation (Scutica; [25]): 2
- Viablity (%) (Scutica; [26]): 95%
- Mortality during Cultivation (Scutica; [26]): 1
- Viability (Pseudomonas sp. [1]; orally, 0.1 ppm in feed): 60%
- Mortality during Cultivation (Pseudomonas sp. [1]; orally, 0.1 ppm in feed): 8
- Viability (Pseudomonas sp. [1]; [27]): 55%
- Mortality during Cultivation (Pseudomonas sp. [1]; [27]): 9
- Viability (Pseudomonas sp. [1]; [28]): 90%
- Mortality during Cultivation (Pseudomonas sp. [1]; [28]): 2
- Viability (Pseudomonas sp. [1]; [29]): 90%
- Mortality during Cultivation (Pseudomonas sp. [1]; [29]): 2
- Viability (Pseudomonas sp. [1]; [30]): 60%
- Mortality during Cultivation (Pseudomonas sp. [1]; [30]): 8
- Viability (Pseudomonas sp. [1]; [31]): 70%
- Mortality during Cultivation (Pseudomonas sp. [1]; [31]): 6
- Viability (Pseudomonas sp. [1]; [32]): 90%
- Mortality during Cultivation (Pseudomonas sp. [1]; [32]): 2
- Viability (Pseudomonas sp. [1]; to fish tanks, 10 ppm): 90%
- Mortality during Cultivation (Pseudomonas sp. [1]; to fish tanks, 10 ppm): 2
- Viability (Streptococcus sp.; [33]): 36%
- Viability (Streptococcus sp.; [34]): 74%
- Viability (Streptococcus sp.; [35]): 90%
- Viability (Streptococcus sp.; [36]): 86%
- Viability (Edwardsiella tarda; [33]): 42%
- Viability (Edwardsiella tarda; [34]): 68%
- Viability (Edwardsiella tarda; [35]): 92%
- Viability (Edwardsiella tarda; [36]): 82%
- Viability (Staphylococcus epidermis; [33]): 42%
- Viability (Staphylococcus epidermis; [34]): 68%
- Viability (Staphylococcus epidermis; [35]): 94%
- Viability (Staphylococcus epidermis; [36]): 86%
- Viability (Staphylococcus sp.; [33]): 42%
- Viability (Staphylococcus sp.; [34]): 72%
- Viability (Staphylococcus sp.; [35]): 92%
- Viability (Staphylococcus sp.; [36]): 86%
- Viability (Pseudomonas sp. [2]; [33]): 42%
- Viability (Pseudomonas sp. [2]; [34]): 68%
- Viability (Pseudomonas sp. [2]; [35]): 88%
- Viability (Pseudomonas sp. [2]; [36]): 82%
- Infection value by MABV (marine birnavirus (MABV); 0 days after inoculation): 4.3* Log TCID50/mL
- Infection value by MABV (marine birnavirus (MABV); 1 day after inoculation): 3.8 Log TCID50/mL
- Infection value by MABV (marine birnavirus (MABV); 3 days after inoculation): 3.5 Log TCID50/mL
- Infection value by MABV (marine birnavirus (MABV); 5 days after inoculation): 2.3 Log TCID50/mL
- Infection value by MABV (marine birnavirus (MABV); 7 days after inoculation): <1.8 Log TCID50/mL
- effect on MABV within culture cell system (marine birnavirus (MABV); reacted 30 min before inoculation): inactivated
